Experimental data reported in ChEMBL document CHEMBL1201862, “PubChem BioAssay data set” (2004).
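A five-concentration, 48-hour dose response in 96-well plates underlies each endpoint, interpolated linearly between surrounding concentrations. At the GI50, growth is halved.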 The source made the active and inactive calls. Cut-off read from the data, not from the text of the source: active = GI50 up to about 1.1 µM and inactive = higher.

What was measured:
Assay in all cases: DTP human tumour cell line panel, 48 h
[1] = tested on: A549
[2] = tested on: SK-OV-3
[3] = tested on: HT-29
[4] = tested on: 786-0
[5] = tested on: TK-10
[6] = tested on: SF-268
[7] = tested on: HCC 2998
[8] = tested on: SR
[9] = tested on: M14
[10] = tested on: K562
[11] = tested on: SF-295
[12] = tested on: SK-MEL-28
[13] = tested on: HL-60
[14] = tested on: KM12
[15] = tested on: MOLT-4
[16] = tested on: COLO 205
[17] = tested on: ACHN
[18] = tested on: RPMI-8226
[19] = tested on: UO-31
[20] = tested on: SF-539

SMILES | GI50 [1] | GI50 [2] | GI50 [3] | GI50 [4] | GI50 [5] | GI50 [6] | GI50 [7] | GI50 [8] | GI50 [9] | GI50 [10] | GI50 [11] | GI50 [12] | GI50 [13] | GI50 [14] | GI50 [15] | GI50 [16] | GI50 [17] | GI50 [18] | GI50 [19] | GI50 [20]
CC1=NN(C(=O)c2ccccc2O)C(=O)/C1=C/c1ccc(O)cc1 | 0.291 µM (active) | 0.26 µM (active) | 26.9 µM (inactive) | 0.323 µM (active) | 13 µM (inactive) | 0.265 µM (active) | 3.22 µM (inactive) | 0.485 µM (active) | 0.351 µM (active) | 0.0667 µM (active) | 0.379 µM (active) | 52.2 µM (inactive) | 1.02 µM (active) | 0.298 µM (active) | 0.711 µM (active) | 34.9 µM (inactive) | 0.204 µM (active) | 0.312 µM (active) | 0.153 µM (active) | 0.188 µM (active)
C/C(=N\NC(=O)c1ccncc1)c1sc(-n2nc(-c3ccccc3)cc2-c2ccccc2)nc1C | > 31.6 µM (inactive) | > 31.6 µM (inactive) | > 100 µM (inactive) | > 31.6 µM (inactive) | > 31.6 µM (inactive) | > 100 µM (inactive) | > 31.6 µM (inactive) | 25.5 µM (inactive) | > 31.6 µM (inactive) | 59.6 µM (inactive) | > 31.6 µM (inactive) | > 31.6 µM (inactive) | 21.5 µM (inactive) | 99.5 µM (inactive) | 17.1 µM (inactive) | > 100 µM (inactive) | > 31.6 µM (inactive) | 20.7 µM (inactive) | > 31.6 µM (inactive) | > 31.6 µM (inactive)
S=c1c2nc[nH]c2ncn1CCSC1=NC=NC2=NC=NC21 (stereo not given) | > 100 µM (inactive) | 52.2 µM (inactive) | > 100 µM (inactive) | 71 µM (inactive) | > 76.2 µM (inactive) | > 100 µM (inactive) | > 100 µM (inactive) | 50.1 µM (inactive) | 43.8 µM (inactive) | 30.6 µM (inactive) | > 100 µM (inactive) | > 100 µM (inactive) | > 92 µM (inactive) | 76.2 µM (inactive) | 70.5 µM (inactive) | > 100 µM (inactive) | > 100 µM (inactive) | > 85.5 µM (inactive) | > 100 µM (inactive) | > 84.1 µM (inactive)
CC(C)CC(N/C=C1/N=C(c2ccccc2)OC1=O)C(=O)O (stereo not given) | > 100 µM (inactive) | > 100 µM (inactive) | > 100 µM (inactive) | > 100 µM (inactive) | > 100 µM (inactive) | > 100 µM (inactive) | > 100 µM (inactive) | > 100 µM (inactive) | > 100 µM (inactive) | > 100 µM (inactive) | > 100 µM (inactive) | > 100 µM (inactive) | > 100 µM (inactive) | > 100 µM (inactive) | > 100 µM (inactive) | > 100 µM (inactive) | > 100 µM (inactive) | > 100 µM (inactive) | > 100 µM (inactive) | > 100 µM (inactive)
O=c1ccn(C2OC(COC3CCCCO3)C(OC3CCCCO3)C2OC2CCCCO2)c(=O)n1-c1ccccc1 (stereo not given) | > 100 µM (inactive) | > 100 µM (inactive) | > 100 µM (inactive) | > 100 µM (inactive) | > 100 µM (inactive) | > 100 µM (inactive) | > 100 µM (inactive) | 51.5 µM (inactive) | > 100 µM (inactive) | 91.6 µM (inactive) | > 100 µM (inactive) | > 100 µM (inactive) | > 100 µM (inactive) | > 100 µM (inactive) | > 100 µM (inactive) | > 100 µM (inactive) | > 100 µM (inactive) | > 100 µM (inactive) | > 100 µM (inactive) | > 100 µM (inactive)
COC(=O)C1(OC(=O)Sc2ccccc2)CCN(C)CC1 | 11.4 µM (inactive) | 33.3 µM (inactive) | 21.4 µM (inactive) | 19 µM (inactive) | 41.3 µM (inactive) | 18.4 µM (inactive) | 28.6 µM (inactive) | 10.8 µM (inactive) | 15.5 µM (inactive) | 22.4 µM (inactive) | 25.2 µM (inactive) | 27.9 µM (inactive) | 5.96 µM (inactive) | 10.9 µM (inactive) | 6.68 µM (inactive) | 9.82 µM (inactive) | 15.7 µM (inactive) | 6.38 µM (inactive) | 3.79 µM (inactive) | 10.8 µM (inactive)
N#C/C(=C/c1ccco1)C(=O)c1ccccc1 | > 100 µM (inactive) | > 100 µM (inactive) | > 100 µM (inactive) | > 100 µM (inactive) | > 100 µM (inactive) | > 100 µM (inactive) | > 100 µM (inactive) | > 100 µM (inactive) | > 100 µM (inactive) | > 100 µM (inactive) | > 100 µM (inactive) | > 100 µM (inactive) | > 100 µM (inactive) | > 100 µM (inactive) | > 100 µM (inactive) | > 100 µM (inactive) | > 100 µM (inactive) | > 100 µM (inactive) | > 100 µM (inactive) | > 100 µM (inactive)
CC(C)(C)OC(=O)NC(CSSCC(NC(=O)OC(C)(C)C)C(=O)O)C(=O)O (stereo not given) | > 100 µM (inactive) | > 100 µM (inactive) | > 100 µM (inactive) | > 100 µM (inactive) | > 100 µM (inactive) | > 100 µM (inactive) | > 100 µM (inactive) | > 100 µM (inactive) | > 100 µM (inactive) | > 100 µM (inactive) | > 100 µM (inactive) | > 100 µM (inactive) | > 100 µM (inactive) | > 100 µM (inactive) | > 100 µM (inactive) | > 100 µM (inactive) | > 100 µM (inactive) | > 100 µM (inactive) | > 100 µM (inactive) | > 100 µM (inactive)
CS(=O)(=O)N/N=C/CN1C(=O)c2ccccc2C1=O | > 100 µM (inactive) | > 100 µM (inactive) | > 100 µM (inactive) | > 100 µM (inactive) | > 100 µM (inactive) | > 100 µM (inactive) | > 100 µM (inactive) | > 100 µM (inactive) | > 100 µM (inactive) | > 100 µM (inactive) | > 100 µM (inactive) | > 100 µM (inactive) | > 100 µM (inactive) | > 100 µM (inactive) | > 100 µM (inactive) | > 100 µM (inactive) | > 100 µM (inactive) | > 100 µM (inactive) | > 100 µM (inactive) | > 100 µM (inactive)
S=C(N/N=C/c1ccccn1)N1CCCCCC1 | < 0.0142 µM (active) | < 0.01 µM (active) | < 0.01 µM (active) | < 0.01 µM (active) | 0.0101 µM (active) | < 0.0121 µM (active) | 0.444 µM (active) | < 0.01 µM (active) | < 0.01 µM (active) | < 0.01 µM (active) | 0.124 µM (active) | 0.215 µM (active) | < 0.01 µM (active) | < 0.01 µM (active) | < 0.01 µM (active) | < 0.01 µM (active) | < 0.01 µM (active) | < 0.01 µM (active) | 0.0288 µM (active) | < 0.0288 µM (active)
C=C1CC[C@](C)(O)[C@@]2(C)CC[C@H]3C(=C(C)C)C(=O)C[C@]3(C)C[C@H]12 | 42.6 µM (inactive) | > 50 µM (inactive) | 18.3 µM (inactive) | 14.6 µM (inactive) | > 50 µM (inactive) | > 50 µM (inactive) | 23 µM (inactive) | 13.4 µM (inactive) | 37.5 µM (inactive) | 8.73 µM (inactive) | > 50 µM (inactive) | 43.7 µM (inactive) | 7.6 µM (inactive) | 21 µM (inactive) | 10.9 µM (inactive) | 36.1 µM (inactive) | 42.8 µM (inactive) | 17.9 µM (inactive) | 20 µM (inactive) | > 50 µM (inactive)
COC(=O)C1=C(O)c2cc3c(cc2[C@H](c2cc(OC)c(OC)c(OC)c2)C1C(=O)OC)OCO3 (stereo not given in full) | > 100 µM (inactive) | 44.1 µM (inactive) | 95.5 µM (inactive) | 42.7 µM (inactive) | 31.3 µM (inactive) | 50.8 µM (inactive) | > 100 µM (inactive) | 86.5 µM (inactive) | 89.5 µM (inactive) | 72.1 µM (inactive) | 57 µM (inactive) | 52.8 µM (inactive) | > 100 µM (inactive) | 35.2 µM (inactive) | 58.9 µM (inactive) | 19.7 µM (inactive) | 22.1 µM (inactive) | > 100 µM (inactive) | 42.3 µM (inactive) | 20.7 µM (inactive)
COC(=O)C1OC2(CCCC3CC32)O[C@H]1C(=O)OC (stereo not given in full) | > 100 µM (inactive) | > 100 µM (inactive) | > 100 µM (inactive) | > 100 µM (inactive) | > 100 µM (inactive) | > 100 µM (inactive) | > 100 µM (inactive) | > 100 µM (inactive) | > 100 µM (inactive) | > 100 µM (inactive) | > 100 µM (inactive) | > 100 µM (inactive) | > 100 µM (inactive) | > 100 µM (inactive) | > 100 µM (inactive) | > 100 µM (inactive) | > 100 µM (inactive) | > 100 µM (inactive) | > 100 µM (inactive) | > 100 µM (inactive)
COc1cc(/C=C/C(=O)CC(=O)/C=C/c2ccc(O)c(OC)c2)ccc1O [CURCUMIN] | 12.8 µM (inactive) | 8.91 µM (inactive) | 5.09 µM (inactive) | 3.33 µM (inactive) | 14.2 µM (inactive) | 7.06 µM (inactive) | 3.02 µM (inactive) | 3.28 µM (inactive) | 3.78 µM (inactive) | 3.13 µM (inactive) | 8.04 µM (inactive) | 4.5 µM (inactive) | 7.33 µM (inactive) | 5.45 µM (inactive) | 4.68 µM (inactive) | 13.5 µM (inactive) | 12.4 µM (inactive) | 2.09 µM (inactive) | 11.3 µM (inactive) | 2.84 µM (inactive)
